In ChEMBL document CHEMBL1201862, “PubChem BioAssay data set” (2004):
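Assay format: 96-well plates, 48-hour exposure. Abbreviation: GI50, concentration required for 50% inhibition of growth.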 The source made the active and inactive calls. No stated cut-off is given here; in the data, active = GI50 up to about 1.1 µM and inactive = higher.

Key:
Assay in all cases: NCI-60 cell line screen, 48 h
[1] = system: A498
[2] = system: BT-549
[3] = system: CAKI-1
[4] = system: HCT-116
[5] = system: HOP-92
[6] = system: M14
[7] = system: MDA-MB-231
[8] = system: Malme-3M
[9] = system: NCI-H522
[10] = system: OVCAR-4
[11] = system: PC-3
[12] = system: SF-539
[13] = system: SK-MEL-5
[14] = system: SK-OV-3
[15] = system: SN12C
[16] = system: SNB-75
[17] = system: SR
[18] = system: SW-620
[19] = system: UACC-257
[20] = system: UACC-62

Measured: GI50

CNC(=S)N/N=C(\C)c1nc2cccnc2[nH]1
inactive: [1] > 100 µM | [2] 27.9 µM | [3] 33.8 µM | [4] 30 µM | [5] 20.6 µM | [6] 45.2 µM | [7] 42.7 µM | [8] > 70.5 µM | [9] 22.8 µM | [10] 4.12 µM | [11] 48.5 µM | [12] 27.7 µM | [13] 29.2 µM | [14] 31.8 µM | [15] 98.2 µM | [16] > 70.6 µM | [17] 28.4 µM | [18] 52.8 µM | [19] 60.8 µM | [20] 6.34 µM

OC[P+](CO)(CO)C12CC3CC(CC(C3)C1)C2
inactive: [1] > 100 µM | [2] > 100 µM | [3] > 100 µM | [4] > 87.3 µM | [5] > 86.9 µM | [6] > 100 µM | [7] > 100 µM | [8] > 100 µM | [9] > 70.8 µM | [10] > 48.3 µM | [11] > 100 µM | [12] > 100 µM | [13] > 100 µM | [14] > 100 µM | [15] > 100 µM | [16] > 64.4 µM | [17] 16.7 µM | [18] > 100 µM | [19] > 100 µM | [20] > 100 µM
